According to US20190161499A1, “PESTICIDALLY ACTIVE 1,2,4-TRIAZOLE DERIVATIVES” (SYNGENTA PARTICIPATIONS AG, priority 2015, published 2019):

Key:
Assay type in all cases: in vivo
[1] = tested on: Spodoptera littoralis (Egyptian Cotton Leaf Worm); experiment: Spodoptera littoralis cotton leaf disc spray test; conditions: foliar, 72 h, application rate 200 ppm, L1 larvae, 3 days after infestation, read-out: control (at least one of mortality, anti-feedant effect, growth inhibition)
Protocol: Spodoptera littoralis (Egyptian Cotton Leaf Worm)
Cotton leaf discs were placed on agar in 24-well microtiter plates and sprayed with aqueous test solutions prepared from 10,000 ppm DMSO stock solutions. After drying, the leaf discs were infested with five L1 larvae. The samples were assessed for mortality, anti-feedant effect, and growth inhibition in comparison to untreated samples 3 days after infestation. Control of Spodoptera littoralis by a test sample is when at least one of mortality, anti-feedant effect, and growth inhibition is higher than the untreated sample.

[2] = tested on: Plutella xylostella (Diamond Back Moth); experiment: whole plant or invertebrate; conditions: 120 h, application rate 200 ppm, L2 larvae, 5 days after infestation, read-out: effect in at least one of the two categories (mortality or growth inhibition)
Protocol: Example B2: Plutella xylostella (Diamond Back Moth)
(§1) 24-well microtiter plates with artificial diet were treated with aqueous test solutions prepared from 10,000 ppm DMSO stock solutions by pipetting. After drying, the plates were infested with L2 larvae (10 to 15 per well). The samples were assessed for mortality and growth inhibition in comparison to untreated samples 5 days after infestation.

[3] = tested on: Diabrotica Balteata (Corn Root Worm); experiment: whole plant or invertebrate; conditions: 96 h, application rate 200 ppm, L2 larvae, 4 days after infestation, read-out: effect in at least one of the two categories (mortality or growth inhibition)
Protocol: Example B3: Diabrotica Balteata (Corn Root Worm)
as §1, with “Maize sprouts, placed on an agar layer in 24-well” for “24-well”, “plates” for “plates with artificial diet”, “spraying.” for “pipetting.”, “(6” for “(10”, “10” for “15”, “4” for “5”

Clc1ccc(-c2nc(CN3CCC(c4ncccn4)CC3)n(-c3cccc(Cl)c3Cl)n2)cc1 [Example 1.55]
≥ 80%: percent control (mortality, anti-feedant effect or growth inhibition) at 200 ppm [1] | percent effect (mortality or growth inhibition) at 200 ppm [2] | percent effect (mortality or growth inhibition) at 200 ppm [3]

COC[C@@H]1CCCN1Cc1nc(-c2ccc(Cl)cc2)nn1-c1ccccc1F [Example 5.28]
≥ 80%: percent control (mortality, anti-feedant effect or growth inhibition) at 200 ppm [1] | percent effect (mortality or growth inhibition) at 200 ppm [2] | percent effect (mortality or growth inhibition) at 200 ppm [3]

Fc1ccccc1-n1nc(-c2ccc(Cl)cc2)nc1CN1CCC(c2ccccc2)CC1 [Example 1.43]
≥ 80%: percent control (mortality, anti-feedant effect or growth inhibition) at 200 ppm [1] | percent effect (mortality or growth inhibition) at 200 ppm [2] | percent effect (mortality or growth inhibition) at 200 ppm [3]

Fc1ccccc1-n1nc(-c2cccc(C(F)(F)F)c2)nc1CN1CCC(c2ncccn2)CC1 [Example 1.38]
≥ 80%: percent control (mortality, anti-feedant effect or growth inhibition) at 200 ppm [1] | percent effect (mortality or growth inhibition) at 200 ppm [2] | percent effect (mortality or growth inhibition) at 200 ppm [3]

Cc1ccccc1-n1nc(-c2ccc(Cl)cc2)nc1CN1CCC(c2ncccn2)CC1 [Example 1.62]
≥ 80%: percent control (mortality, anti-feedant effect or growth inhibition) at 200 ppm [1] | percent effect (mortality or growth inhibition) at 200 ppm [2] | percent effect (mortality or growth inhibition) at 200 ppm [3]

Clc1ccc(-c2nc(CN3CCC(c4ncccn4)CC3)n(Cc3ccccc3)n2)cc1 [Example 1.56]
≥ 80%: percent control (mortality, anti-feedant effect or growth inhibition) at 200 ppm [1] | percent effect (mortality or growth inhibition) at 200 ppm [2] | percent effect (mortality or growth inhibition) at 200 ppm [3]

Clc1ccc(-c2nc(CN3CCC(c4ncccn4)CC3)n(-c3ccccc3)n2)cc1 [Example 1.61]
≥ 80%: percent control (mortality, anti-feedant effect or growth inhibition) at 200 ppm [1] | percent effect (mortality or growth inhibition) at 200 ppm [2] | percent effect (mortality or growth inhibition) at 200 ppm [3]

Fc1ccc(-n2nc(-c3ccc(Cl)cc3)nc2CN2CCC(c3ncccn3)CC2)c(F)c1 [Example 1.30]
≥ 80%: percent control (mortality, anti-feedant effect or growth inhibition) at 200 ppm [1] | percent effect (mortality or growth inhibition) at 200 ppm [2] | percent effect (mortality or growth inhibition) at 200 ppm [3]

CC1CCN(Cc2nc(-c3ccc(Cl)cc3)nn2-c2ccccc2F)CC1 [Example 1.46]
≥ 80%: percent control (mortality, anti-feedant effect or growth inhibition) at 200 ppm [1] | percent effect (mortality or growth inhibition) at 200 ppm [2] | percent effect (mortality or growth inhibition) at 200 ppm [3]

Fc1ccccc1-n1nc(-c2ccc(Cl)c(Cl)c2)nc1CN1CCC(c2ncccn2)CC1 [Example 1.20]
≥ 80%: percent control (mortality, anti-feedant effect or growth inhibition) at 200 ppm [1] | percent effect (mortality or growth inhibition) at 200 ppm [2] | percent effect (mortality or growth inhibition) at 200 ppm [3]

Fc1ccc(C2CCN(Cc3nc(-c4ccc(Cl)cc4)nn3-c3ccccc3F)CC2)nc1 [Example 1.122]
≥ 80%: percent control (mortality, anti-feedant effect or growth inhibition) at 200 ppm [1] | percent effect (mortality or growth inhibition) at 200 ppm [2] | percent effect (mortality or growth inhibition) at 200 ppm [3]

Fc1cccc(F)c1-n1nc(-c2ccc(C(F)(F)F)cc2)nc1CN1CCC(c2ncccn2)CC1 [Example 1.21]
≥ 80%: percent control (mortality, anti-feedant effect or growth inhibition) at 200 ppm [1] | percent effect (mortality or growth inhibition) at 200 ppm [2] | percent effect (mortality or growth inhibition) at 200 ppm [3]

Clc1ccc(-c2nc(CN3CCC(c4ncccn4)CC3)n(-c3ccc(Cl)cc3)n2)cc1 [Example 1.66]
≥ 80%: percent control (mortality, anti-feedant effect or growth inhibition) at 200 ppm [1] | percent effect (mortality or growth inhibition) at 200 ppm [2] | percent effect (mortality or growth inhibition) at 200 ppm [3]

Clc1ccc(-c2nc(CN3CCC(c4ncccn4)CC3)n(-c3ccccc3Cl)n2)cc1 [Example 1.83]
≥ 80%: percent control (mortality, anti-feedant effect or growth inhibition) at 200 ppm [1] | percent effect (mortality or growth inhibition) at 200 ppm [2] | percent effect (mortality or growth inhibition) at 200 ppm [3]

Fc1cccc(-n2nc(-c3ccc(Cl)cc3)nc2CN2CCC(c3ncccn3)CC2)c1 [Example 1.80]
≥ 80%: percent control (mortality, anti-feedant effect or growth inhibition) at 200 ppm [1] | percent effect (mortality or growth inhibition) at 200 ppm [2] | percent effect (mortality or growth inhibition) at 200 ppm [3]

Clc1ccc(-c2nc(CN3CCC(c4ncccn4)CC3)n(-c3ccccn3)n2)cc1 [Example 1.78]
≥ 80%: percent control (mortality, anti-feedant effect or growth inhibition) at 200 ppm [1] | percent effect (mortality or growth inhibition) at 200 ppm [2] | percent effect (mortality or growth inhibition) at 200 ppm [3]

Clc1ccc(-c2nc(CN3CCC(c4ncccn4)CC3)n(-c3ccc(Br)cc3)n2)cc1 [Example 1.76]
≥ 80%: percent control (mortality, anti-feedant effect or growth inhibition) at 200 ppm [1] | percent effect (mortality or growth inhibition) at 200 ppm [2] | percent effect (mortality or growth inhibition) at 200 ppm [3]

Cc1cc(Cl)ccc1-n1nc(-c2ccc(Cl)cc2)nc1CN1CCC(c2ncccn2)CC1 [Example 1.85]
≥ 80%: percent control (mortality, anti-feedant effect or growth inhibition) at 200 ppm [1] | percent effect (mortality or growth inhibition) at 200 ppm [2] | percent effect (mortality or growth inhibition) at 200 ppm [3]

Cc1c(Cl)cccc1-n1nc(-c2ccc(Cl)cc2)nc1CN1CCC(c2ncccn2)CC1 [Example 1.84]
≥ 80%: percent control (mortality, anti-feedant effect or growth inhibition) at 200 ppm [1] | percent effect (mortality or growth inhibition) at 200 ppm [2] | percent effect (mortality or growth inhibition) at 200 ppm [3]

Fc1ccc(-c2nc(CN3CCC(c4ncccn4)CC3)n(-c3ccc(F)cc3)n2)cc1 [Example 1.29]
≥ 80%: percent control (mortality, anti-feedant effect or growth inhibition) at 200 ppm [1] | percent effect (mortality or growth inhibition) at 200 ppm [2] | percent effect (mortality or growth inhibition) at 200 ppm [3]

CC1(C)CCN(Cc2nc(-c3ccc(Cl)cc3)nn2-c2ccccc2F)CC1 [Example 1.35]
≥ 80%: percent control (mortality, anti-feedant effect or growth inhibition) at 200 ppm [1] | percent effect (mortality or growth inhibition) at 200 ppm [2] | percent effect (mortality or growth inhibition) at 200 ppm [3]

Fc1ccccc1-n1nc(-c2ccc(Cl)cc2)nc1CN1CCC(c2ncccn2)CC1 [Example 1.1, 2-[1-[[5-(4-chlorophenyl)-2-(2-fluorophenyl)-1,2,4-triazol-3-yl]methyl]-4-piperidyl]pyrimidine]
≥ 80%: percent control (mortality, anti-feedant effect or growth inhibition) at 200 ppm [1] | percent effect (mortality or growth inhibition) at 200 ppm [2] | percent effect (mortality or growth inhibition) at 200 ppm [3]

Clc1ccc(-c2nc(CN3CCC(c4ncccn4)CC3)n(-c3c(Cl)cc(Cl)cc3Cl)n2)cc1 [Example 1.77]
≥ 80%: percent control (mortality, anti-feedant effect or growth inhibition) at 200 ppm [1] | percent effect (mortality or growth inhibition) at 200 ppm [2] | percent effect (mortality or growth inhibition) at 200 ppm [3]

Fc1ccccc1-n1nc(-c2ccc(Cl)cc2)nc1CN1CCC(c2ncccc2Cl)CC1 [Example 1.126]
≥ 80%: percent control (mortality, anti-feedant effect or growth inhibition) at 200 ppm [1] | percent effect (mortality or growth inhibition) at 200 ppm [2] | percent effect (mortality or growth inhibition) at 200 ppm [3]

Fc1ccccc1-n1nc(-c2ccc(C(F)(F)F)cc2)nc1CN1CCC(c2ncccn2)CC1 [Example 1.26]
≥ 80%: percent control (mortality, anti-feedant effect or growth inhibition) at 200 ppm [1] | percent effect (mortality or growth inhibition) at 200 ppm [2] | percent effect (mortality or growth inhibition) at 200 ppm [3]

COc1ccccc1-n1nc(-c2ccc(Cl)cc2)nc1CN1CCC(c2ncccn2)CC1 [Example 1.70]
≥ 80%: percent control (mortality, anti-feedant effect or growth inhibition) at 200 ppm [1] | percent effect (mortality or growth inhibition) at 200 ppm [2] | percent effect (mortality or growth inhibition) at 200 ppm [3]
